For 64 compounds, response, % of control and inhibition results are on record in ChEMBL document CHEMBL4480433, “Investigation of B,C-ring truncated deguelin derivatives as heat shock protein 90 (HSP90) inhibitors for use as anti-breast cancer agents” (Bioorg Med Chem, 2019).

What all share (format): cell-based
Assay [1] has as its target T1, Heat shock protein HSP90 (Homo sapiens) (UniProt P07900+P08238). The assay can be described thus: Inhibition of HSP90 in human H1299 cells assessed as reduction in HIF-1alpha at 100 nM incubated for 72 hrs and subsequently incubated under hypoxic conditions for 12 hrs by Western blot analysis relative to control. Particulars: values are per cent of control. For orientation: In western blotting, separated proteins are transferred to a membrane and probed.

Assay [2] concerns the target T1, Heat shock protein HSP90 (Homo sapiens). The assay can be described thus: Inhibition of HSP90 in human H1299 cells assessed as reduction in HIF-1alpha at 10 nM incubated for 72 hrs and subsequently incubated under hypoxic conditions for 12 hrs by Western blot analysis relative to control. To be noted: values are per cent of control.
Assay [3] shares this target. The assay can be described thus: Inhibition of HSP90 in human H1299 cells assessed as reduction in HIF-1alpha incubated for 72 hrs and subsequently incubated under hypoxic conditions for 12 hrs by Western blot analysis relative to control.

Consider `COc1ccc(N(Cc2ccc(Cl)cc2)C(=O)c2ccc3c(c2OC)C=CC(C)(C)O3)nc1OC`, for which the response, % of control in assay [1] amounted to 57.6%.

For `COc1ccc(N(CCN2CCOCC2)C(=O)c2ccc3c(c2OC)C=CC(C)(C)O3)nc1OC`, the values for the response, % of control in assay [2] and in assay [1] were 72.9% and 60.3%, respectively. The inhibition entry in assay [3] is “Dose-dependent effect”.

Turning to `COc1ccc(N(CCOCc2ccccc2)C(=O)c2ccc3c(c2OC)C=CC(C)(C)O3)nc1OC`, the response, % of control in assay [2] was 69.3%; in assay [1], 57.2%. For the same compound, in assay [3], the inhibition result is “Dose-dependent effect”.

As for `COc1ccc(N(Cc2ccncc2)C(=O)c2ccc3c(c2OC)C=CC(C)(C)O3)nc1OC`, the response, % of control stood at 108% in assay [2] and 55.2% in assay [1].

Regarding `COCCN(C(=O)c1ccc2c(c1OC)C=CC(C)(C)O2)c1ccc(OC)c(OC)c1`, the response, % of control in assay [1] is 65.5%.

For `COc1ccc(N(Cc2ccccc2)C(=O)c2ccc3c(c2OC)C=CC(C)(C)O3)c(F)c1OC`, the response, % of control in assay [1] was determined as 60.8%.

Regarding `COc1ccc(N(CCC2CCNCC2)C(=O)c2ccc3c(c2OC)C=CC(C)(C)O3)nc1OC`, the response, % of control in assay [2] stood at 97.2%; in assay [1], 55.2%.

`COc1ccc(N(CCN2CCN(C)CC2)C(=O)c2ccc3c(c2OC)C=CC(C)(C)O3)c(F)c1OC`: the response, % of control in assay [2] amounted to 81.2%; in assay [1], 53.7%.

Take `COc1ccc(N(CCN)C(=O)c2ccc3c(c2OC)C=CC(C)(C)O3)c(F)c1OC`: in assay [1], the response, % of control was 147%.

As to `COc1ccc(N(CCCN)C(=O)c2ccc3c(c2OC)C=CC(C)(C)O3)nc1OC`, the response, % of control in assay [2] turned out to be 111%; in assay [1], 45.3%.

With `COc1ccc(N(CCO)C(=O)c2ccc3c(c2OC)C=CC(C)(C)O3)c(F)c1OC`, in assay [1], the response, % of control came to 124%.

As to `COc1ccc(N(CCNC(C)=O)C(=O)c2ccc3c(c2OC)C=CC(C)(C)O3)nc1OC`, the response, % of control in assay [2] was determined as 66%; in assay [1], 58.1%. For the same compound, the inhibition entry in assay [3] is “Dose-dependent effect”.

For `COc1ccc(N(CCN2CCN(C)CC2)C(=O)c2ccc3c(c2OC)C=CC(C)(C)O3)cc1OC`, in assay [1], the response, % of control was found to be 61.9%.

`COc1ccc(N(CCN(C)C)C(=O)c2ccc3c(c2OC)C=CC(C)(C)O3)nc1OC`: the response, % of control in assay [2] is 75.5%; in assay [1], 37.9%. Also, in assay [3], the inhibition result is “Dose-dependent effect”.

For the compound `COc1ccc(N(CCN)C(=O)c2ccc3c(c2OC)C=CC(C)(C)O3)cc1OC`, the response, % of control in assay [2] was found to be 62.1%; in assay [1] it was 39.4%. Moreover, the inhibition entry in assay [3] is “Dose-dependent effect”.

For `COc1ccc(N(CCO)C(=O)c2ccc3c(c2OC)C=CC(C)(C)O3)cc1OC`, the response, % of control in assay [1] is 133%.

In the case of `COc1ccc(N(C(=O)c2ccc3c(c2OC)C=CC(C)(C)O3)c2ccc(Cl)cc2)cc1OC`, the response, % of control in assay [1] was 81.2%.

On to `CNCCN(C(=O)c1ccc2c(c1OC)C=CC(C)(C)O2)c1ccc(OC)c(OC)c1`, for which, in assay [1], the response, % of control came out at 75.9%.

For the compound `COc1ccc(N(Cc2ccccc2)C(=O)c2ccc3c(c2OC)C=CC(C)(C)O3)nc1OC`, the response, % of control turned out to be 83.4% in assay [2] and 38.6% in assay [1].

Take `COc1ccc(N(CCOCc2ccccc2)C(=O)c2ccc3c(c2OC)C=CC(C)(C)O3)c(F)c1OC`: in assay [1], the response, % of control amounted to 65.4%.

Consider `COc1ccc(N(CCN2CCNCC2)C(=O)c2ccc3c(c2OC)C=CC(C)(C)O3)c(F)c1OC`, for which the response, % of control in assay [1] was found to be 54.9%.

Consider `COc1ccc(N(C)C(=O)c2ccc3c(c2OC)C=CC(C)(C)O3)nc1OC`, for which the results for the response, % of control in assay [2] and in assay [1] were 90.4% and 62.3%, respectively.

With `CNCCN(C(=O)c1ccc2c(c1OC)C=CC(C)(C)O2)c1ccc(OC)c(OC)n1`, the response, % of control was determined as 93% in assay [2] and 41.2% in assay [1].

Turning to `COc1ccc(N(CCN2CCN(C)CC2)C(=O)c2ccc3c(c2OC)C=CC(C)(C)O3)nc1OC`, the response, % of control in assay [2] was 97.2%; in assay [1], 42.2%.

As to `COc1ccc(N(CCN(C)C)C(=O)c2ccc3c(c2OC)C=CC(C)(C)O3)c(F)c1OC`, the response, % of control in assay [2] was determined as 97.9%; in assay [1], 53.3%.

Consider `CCN(CC)CCN(C(=O)c1ccc2c(c1OC)C=CC(C)(C)O2)c1ccc(OC)c(OC)n1`, for which the response, % of control in assay [1] amounted to 64.4%.

`COc1ccc(N(CCN(C)C)C(=O)c2ccc3c(c2OC)C=CC(C)(C)O3)cc1OC`: in assay [1], the response, % of control was 71%.

For the compound `COc1ccc(N(CCCN)C(=O)c2ccc3c(c2OC)C=CC(C)(C)O3)c(F)c1OC`, the response, % of control in assay [1] was determined as 68.5%.

On to `COc1ccc(N(C(=O)c2ccc3c(c2OC)C=CC(C)(C)O3)c2ccc(OC)c(OC)c2)cc1`, for which the response, % of control in assay [1] was found to be 61.9%.

In the case of `COc1ccc(N(CCN2CCCCC2)C(=O)c2ccc3c(c2OC)C=CC(C)(C)O3)c(F)c1OC`, the response, % of control in assay [1] worked out at 54.3%.

On to `COc1ccc(N(C(=O)c2ccc3c(c2OC)C=CC(C)(C)O3)c2ccccc2)cc1OC`, for which the figures for the response, % of control in assay [2] and in assay [1] were 83.7% and 52.8%, respectively.

In the case of `COc1ccc(N(CCOCc2ccccc2)C(=O)c2ccc3c(c2OC)C=CC(C)(C)O3)cc1OC`, the response, % of control in assay [1] was determined as 74.4%.

Take `COc1ccc(N(Cc2cccnc2)C(=O)c2ccc3c(c2OC)C=CC(C)(C)O3)nc1OC`: the response, % of control in assay [1] came to 95.8%.

For the compound `COc1ccc(N(C(=O)c2ccc3c(c2OC)C=CC(C)(C)O3)c2ccc(F)cc2)cc1OC`, in assay [1], the response, % of control came out at 70.2%.

`COc1ccc(N(CCN2CCCC2)C(=O)c2ccc3c(c2OC)C=CC(C)(C)O3)nc1OC`: the response, % of control in assay [1] amounted to 66%.

Turning to `COc1ccc(N(Cc2ccc(F)cc2)C(=O)c2ccc3c(c2OC)C=CC(C)(C)O3)nc1OC`, the response, % of control in assay [2] turned out to be 104%; in assay [1] it was 63.1%.

For the compound `COc1ccc(N(Cc2ccccc2)C(=O)c2ccc3c(c2OC)C=CC(C)(C)O3)cc1OC`, the response, % of control in assay [1] was found to be 69.8%.

Turning to `COc1ccc(N(C(=O)c2ccc3c(c2OC)C=CC(C)(C)O3)c2ccc(C)cc2)cc1OC`, the response, % of control in assay [1] came out at 58.9%.

On to `COc1ccc(N(CCO)C(=O)c2ccc3c(c2OC)C=CC(C)(C)O3)nc1OC`, for which, in assay [1], the response, % of control stood at 87.9%.

Consider `COc1ccc(N(CCN2CCNCC2)C(=O)c2ccc3c(c2OC)C=CC(C)(C)O3)nc1OC`, for which, in assay [1], the response, % of control was 59.4%.

As to `COc1ccc(N(CCN2CCCCC2)C(=O)c2ccc3c(c2OC)C=CC(C)(C)O3)nc1OC`, in assay [1], the response, % of control was 79.7%.

With `COc1ccc(N(CCCN(C)C)C(=O)c2ccc3c(c2OC)C=CC(C)(C)O3)nc1OC`, the response, % of control in assay [2] was determined as 65.6%; in assay [1], 44%. Moreover, the inhibition entry in assay [3] was “Dose-dependent effect”.

As to `COc1ccc(N(CCN)C(=O)c2ccc3c(c2OC)C=CC(C)(C)O3)nc1OC`, the response, % of control in assay [2] is 64%; in assay [1], 33.3%. Further, the inhibition result in assay [3] was “Dose-dependent effect”.

With `COc1ccc(N(CCN2CCCCC2)C(=O)c2ccc3c(c2OC)C=CC(C)(C)O3)cc1OC`, in assay [1], the response, % of control came out at 83.7%.

Regarding `COc1ccc(NC(=O)c2ccc3c(c2OC)C=CC(C)(C)O3)c(F)c1OC`, the response, % of control in assay [1] stood at 101%.

As to `COCCN(C(=O)c1ccc2c(c1OC)C=CC(C)(C)O2)c1ccc(OC)c(OC)c1F`, the response, % of control in assay [1] worked out at 59.3%.

For `COCCN(C(=O)c1ccc2c(c1OC)C=CC(C)(C)O2)c1ccc(OC)c(OC)n1`, the response, % of control in assay [1] was determined as 52.5%.

Take `COc1ccc(N(C)C(=O)c2ccc3c(c2OC)C=CC(C)(C)O3)cc1OC`: in assay [1], the response, % of control came to 126%.

For `COc1ccc(N(Cc2ccc(C)cc2)C(=O)c2ccc3c(c2OC)C=CC(C)(C)O3)nc1OC`, in assay [1], the response, % of control was determined as 71.1%.

Turning to `COc1ccc(N(CCNC(=O)OC(C)(C)C)C(=O)c2ccc3c(c2OC)C=CC(C)(C)O3)cc1OC`, the response, % of control in assay [1] stood at 70.3%.

Regarding `COc1ccc(NC(=O)c2ccc3c(c2OC)C=CC(C)(C)O3)cc1OC`, in assay [1], the response, % of control came to 147%.

Regarding `COc1ccc(N(CCNC(C)=O)C(=O)c2ccc3c(c2OC)C=CC(C)(C)O3)cc1OC`, the response, % of control in assay [1] amounted to 127%.

Regarding `COc1ccc(NC(=O)c2ccc3c(c2OC)C=CC(C)(C)O3)nc1OC`, in assay [1], the response, % of control was 88.4%.

For `COc1ccc(N(CCCNC(C)=O)C(=O)c2ccc3c(c2OC)C=CC(C)(C)O3)nc1OC`, the response, % of control in assay [1] is 76.6%.

Take `CNCCN(C(=O)c1ccc2c(c1OC)C=CC(C)(C)O2)c1ccc(OC)c(OC)c1F`: in assay [1], the response, % of control came out at 107%.

`COc1ccc(N(CCN2CCOCC2)C(=O)c2ccc3c(c2OC)C=CC(C)(C)O3)c(F)c1OC`: the response, % of control amounted to 111% in assay [2] and 48.8% in assay [1].

For `COc1ccc(N(C)C(=O)c2ccc3c(c2OC)C=CC(C)(C)O3)c(F)c1OC`, the response, % of control in assay [1] worked out at 93.1%.

With `COc1ccc(CN(C(=O)c2ccc3c(c2OC)C=CC(C)(C)O3)c2ccc(OC)c(OC)n2)cc1`, in assay [1], the response, % of control stood at 77%.

With `COc1ccc(N(Cc2cccc(F)c2)C(=O)c2ccc3c(c2OC)C=CC(C)(C)O3)nc1OC`, the response, % of control in assay [1] came out at 85.7%.

On to `COc1ccc(N(Cc2ccccn2)C(=O)c2ccc3c(c2OC)C=CC(C)(C)O3)nc1OC`, for which, in assay [1], the response, % of control is 97%.

Regarding `COc1ccc(N(Cc2cccc(Cl)c2)C(=O)c2ccc3c(c2OC)C=CC(C)(C)O3)nc1OC`, in assay [1], the response, % of control is 80.2%.

For the compound `COc1ccc(N(CCN2CCOCC2)C(=O)c2ccc3c(c2OC)C=CC(C)(C)O3)cc1OC`, the response, % of control in assay [1] is 117%.

With `COc1ccc(N(CCNC(=O)OC(C)(C)C)C(=O)c2ccc3c(c2OC)C=CC(C)(C)O3)nc1OC`, the response, % of control in assay [1] was found to be 57.4%.

Consider `COc1ccc(N(CCCN)C(=O)c2ccc3c(c2OC)C=CC(C)(C)O3)cc1OC`, for which the response, % of control in assay [1] is 100%.
